Here are results for 20 compounds from patent US12428406B2 (PMV Pharmaceuticals, Inc., priority 2019, dated 2025).

The target in this assay is T1, p53 Y220C (Homo sapiens, UniProt P04637, Y220C).
T1 construct: The recombinant protein was a truncation mutant containing only amino acids 94-312 of p53; made in house; host or cells: E. coli
T1 sequence (P04637 94-312, change not shown): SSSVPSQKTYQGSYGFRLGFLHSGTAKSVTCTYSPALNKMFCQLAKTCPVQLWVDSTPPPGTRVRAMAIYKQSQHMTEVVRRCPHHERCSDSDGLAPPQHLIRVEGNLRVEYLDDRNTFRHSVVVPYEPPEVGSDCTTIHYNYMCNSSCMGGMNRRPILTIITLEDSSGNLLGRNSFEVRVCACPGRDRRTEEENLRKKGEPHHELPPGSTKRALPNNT
Nature of the assay: In vitro DNA binding activity assay (HTRF / TR-FRET): stabilization of p53 Y220C and increase of its DNA binding activity. It is filed as biochemical. The note with it: recombinant His-tagged p53 Y220C DNA binding domain (aa 94-312), biotin-labeled consensus DNA, incubated at 27° C. or 29° C. for 60 min. An outline of the steps:
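His-tagged p53 Y220C, E. coli-expressed, binding biotin-labeled consensus DNA measured by HTRF (anti-His-APC, streptavidin-europium). Compounds from 4.5 mM DMSO stocks, 3-fold serial dilutions; incubations at room temperature 15 min, then 20 min. SC150 = concentration raising DNA binding by 50%.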
A general note: Time-resolved FRET reads energy transfer from a long-lived donor to a nearby acceptor.
`CNC(=O)c1ccc(NCC#Cc2cc3c(N[C@H]4CC[C@H](N5CCCC5)CC4)cccc3n2CC(F)(F)F)c(OC)c1` [Compound 420A, 3-methoxy-N-methyl-4-{[3-(4-{[(1R,4R)-4-(pyrrolidin-1-yl)cyclohexyl]amino}-1-(2,2,2-trifluoroethyl)-1H-indol-2-yl)prop-2-yn-1-yl]amino}benzamide]: the “SC150 (concentration of the compound required to increase the DNA binding activity by 50%)” value is “+ (+ = 0 μM ≤ SC150 < 0.05 μM)”. As to `COc1cc(S(N)(=O)=O)ccc1NCC#Cc1cc2c(N[C@H]3CC[C@H](N4CCCC4)CC3)cccc2n1CC(F)(F)F` [Compound 422A, 3-methoxy-4-{[3-(4-{[(1R,4R)-4-(pyrrolidin-1-yl)cyclohexyl]amino}-1-(2,2,2-trifluoroethyl)-1H-indol-2-yl)prop-2-yn-1-yl]amino}benzene-1-sulfonamide], the “SC150 (concentration of the compound required to increase the DNA binding activity by 50%)” value is “+ (+ = 0 μM ≤ SC150 < 0.05 μM)”. Consider `COc1cc(S(C)(=O)=O)ccc1NCC#Cc1cc2c(N[C@H]3CC[C@H](N4CCCC4)CC3)cccc2n1CC(F)(F)F` [Compound 424A, 2-{3-[(4-methane-sulfonyl-2-methoxy-phenyl)amino]prop-1-yn-1-yl}-N-[(1R,4R)-4-(pyrrolidin-1-yl)cyclohexyl]-1-(2,2,2-trifluoroethyl)-1H-indol-4-amine], for which the “SC150 (concentration of the compound required to increase the DNA binding activity by 50%)” value is “+ (+ = 0 μM ≤ SC150 < 0.05 μM)”. `COc1cc(S(C)(=O)=O)ccc1NCC#Cc1cc2c(N[C@H]3CC[C@H](N4CCC(OC)C4)CC3)cccc2n1CC(F)(F)F` (stereo partly drawn) [Compound 426A, 2-{3-[(4-methane-sulfonyl-2-methoxy-phenyl)amino]prop-1-yn-1-yl}-N-[(1R,4R)-4-(3-methoxypyrrolidin-1-yl)cyclohexyl]-1-(2,2,2-trifluoroethyl)-1H-indol-4-amine]: the “SC150 (concentration of the compound required to increase the DNA binding activity by 50%)” value was “+ (+ = 0 μM ≤ SC150 < 0.05 μM)”. Consider `COc1cc(S(N)(=O)=O)ccc1NCC#Cc1cc2c(N[C@H]3CC[C@H](N4CCC(OC)C4)CC3)cccc2n1CC(F)(F)F` (stereo partly drawn) [Compound 427A, 3-methoxy-4-{[3-(4-{[(1R,4R)-4-(3-methoxypyrrolidin-1-yl)cyclohexyl]amino}-1-(2,2,2-trifluoroethyl)-1H-indol-2-yl)prop-2-yn-1-yl]amino}benzene-1-sulfonamide], for which the “SC150 (concentration of the compound required to increase the DNA binding activity by 50%)” value is reported as “+ (+ = 0 μM ≤ SC150 < 0.05 μM)”.

`CNC(=O)c1ccc(NCC#Cc2cc3c(N[C@H]4CC[C@H](N5CCC(OC)C5)CC4)cccc3n2CC(F)(F)F)c(OC)c1` (stereo partly drawn) [Compound 428A, 3-methoxy-N-methyl-4-{[3-(4-{[(1R,4R)-4-(3-methoxypyrrolidin-1-yl)cyclohexyl]amino}-1-(2,2,2-trifluoroethyl)-1H-indol-2-yl)prop-2-yn-1-yl]amino}benzamide]: the “SC150 (concentration of the compound required to increase the DNA binding activity by 50%)” value is listed as “+ (+ = 0 μM ≤ SC150 < 0.05 μM)”.

As to `COc1cc(S(N)(=O)=O)ccc1NCC#Cc1cc2c(N[C@H]3CC[C@H](N4CC5COCC5C4)CC3)cccc2n1CC(F)(F)F` (stereo partly drawn) [Compound 430A, 3-methoxy-4-{[3-(4-{[(1R,4R)-4-{hexahydro-1H-furo[3,4-c]pyrrol-5-yl}cyclohexyl]amino}-1-(2,2,2-trifluoroethyl)-1H-indol-2-yl)prop-2-yn-1-yl]amino}benzene-1-sulfonamide], the “SC150 (concentration of the compound required to increase the DNA binding activity by 50%)” value is “+ (+ = 0 μM ≤ SC150 < 0.05 μM)”.

As to `COc1cc(S(C)(=O)=O)ccc1NCC#Cc1cc2c(N[C@H]3CC[C@H](N4CC5COCC5C4)CC3)cccc2n1CC(F)(F)F` (stereo partly drawn) [Compound 432A, 2-{3-[(4-methane-sulfonyl-2-methoxy-phenyl)amino]prop-1-yn-1-yl}-N-[(1R,4R)-4-{hexahydro-1H-furo[3,4-c]pyrrol-5-yl}cyclohexyl]-1-(2,2,2-trifluoroethyl)-1H-indol-4-amine], the “SC150 (concentration of the compound required to increase the DNA binding activity by 50%)” value is “+ (+ = 0 μM ≤ SC150 < 0.05 μM)”. For the compound `CNC(=O)c1ccc(NCC#Cc2cc3c(N[C@H]4CC[C@H](N5CC6COCC6C5)CC4)cccc3n2CC(F)(F)F)c(OC)c1` (stereo partly drawn) [Compound 434A, 3-methoxy-N-methyl-4-{[3-(4-{[(1R,4R)-4-{hexahydro-1H-furo[3,4-c]pyrrol-5-yl}cyclohexyl]amino}-1-(2,2,2-trifluoroethyl)-1H-indol-2-yl)prop-2-yn-1-yl]amino}benzamide], the “SC150 (concentration of the compound required to increase the DNA binding activity by 50%)” value is recorded as “+ (+ = 0 μM ≤ SC150 < 0.05 μM)”. Under `COc1cc(S(C)(=O)=O)ccc1NCC#Cc1cc2c(N[C@H]3CC[C@H](N4CCC(C(F)(F)F)CC4)CC3)cccc2n1CC(F)(F)F` [Compound 436A, 2-{3-[(4-methane-sulfonyl-2-methoxy-phenyl)amino]prop-1-yn-1-yl}-N-[(1R,4R)-4-[4-(trifluoromethyl)piperidin-1-yl]cyclohexyl]-1-(2,2,2-trifluoroethyl)-1H-indol-4-amine] stands “+ (+ = 0 μM ≤ SC150 < 0.05 μM)”; under `CNC(=O)c1ccc(NCC#Cc2cc3c(N[C@H]4CC[C@H](N5CCC(C(F)(F)F)CC5)CC4)cccc3n2CC(F)(F)F)c(OC)c1` [Compound 438A, 3-methoxy-N-methyl-4-{[3-(4-{[(1R,4R)-4-[4-(trifluoro-methyl)piperidin-1-yl]cyclohexyl]amino}-1-(2,2,2-trifluoroethyl)-1H-indol-2-yl)prop-2-yn-1-yl]amino}benzamide], “+ (+ = 0 μM ≤ SC150 < 0.05 μM)”.

`COc1cc(S(N)(=O)=O)ccc1NCC#Cc1cc2c(N[C@H]3CC[C@H](N4CCC(C(F)(F)F)CC4)CC3)cccc2n1CC(F)(F)F` [Compound 440A, 3-methoxy-4-{[3-(4-{[(1R,4R)-4-[4-(trifluoromethyl)piperidin-1-yl]cyclohexyl]amino}-1-(2,2,2-trifluoroethyl)-1H-indol-2-yl)prop-2-yn-1-yl]amino}benzene-1-sulfonamide]: the “SC150 (concentration of the compound required to increase the DNA binding activity by 50%)” value was “+ (+ = 0 μM ≤ SC150 < 0.05 μM)”. Under `COc1cc(S(C)(=O)=O)ccc1NCC#Cc1cc2c(N[C@H]3CC[C@H](N4CCC(S(C)(=O)=O)CC4)CC3)cccc2n1CC(F)(F)F` [Compound 442A, 2-{3-[(4-methane-sulfonyl-2-methoxy-phenyl)amino]prop-1-yn-1-yl}-N-[(1R,4R)-4-(4-methanesulfonylpiperidin-1-yl)cyclohexyl]-1-(2,2,2-trifluoroethyl)-1H-indol-4-amine] stands “+ (+ = 0 μM ≤ SC150 < 0.05 μM)”. On to `CNC(=O)c1ccc(NCC#Cc2cc3c(N[C@H]4CC[C@H](N5CCC(S(C)(=O)=O)CC5)CC4)cccc3n2CC(F)(F)F)c(OC)c1` [Compound 444A, 3-methoxy-N-methyl-4-{[3-(4-{[(1R,4R)-4-(4-methane-sulfonylpiperidin-1-yl)cyclohexyl]amino}-1-(2,2,2-trifluoroethyl)-1H-indol-2-yl)prop-2-yn-1-yl]amino}benzamide], for which the “SC150 (concentration of the compound required to increase the DNA binding activity by 50%)” value is given as “+ (+ = 0 μM ≤ SC150 < 0.05 μM)”. In the case of `COc1cc(S(N)(=O)=O)ccc1NCC#Cc1cc2c(N[C@H]3CC[C@H](N4CCC(S(C)(=O)=O)CC4)CC3)cccc2n1CC(F)(F)F` [Compound 446A, 3-methoxy-4-{[3-(4-{[(1R,4R)-4-(4-methanesulfonyl-piperidin-1-yl)cyclo-hexyl]amino}-1-(2,2,2-trifluoroethyl)-1H-indol-2-yl)prop-2-yn-1-yl]amino}benzene-1-sulfonamide], the “SC150 (concentration of the compound required to increase the DNA binding activity by 50%)” value is recorded as “+ (+ = 0 μM ≤ SC150 < 0.05 μM)”. In the case of `COc1cc(S(C)(=O)=O)ccc1NCC#Cc1cc2c(N[C@@H]3CCC[C@H](n4nn[nH]c4=O)C3)cccc2n1CC(F)(F)F` [Compound 448A, 1-[(1S,3R)-3-[(2-{3-[(4-methanesulfonyl-2-methoxyphenyl)amino]prop-1-yn-1-yl}-1-(2,2,2-trifluoroethyl)-1H-indol-4-yl)amino]cyclo-hexyl]-4,5-dihydro-1H-1,2,3,4-tetrazol-5-one], the “SC150 (concentration of the compound required to increase the DNA binding activity by 50%)” value is reported as “++ (++ = 0.05 μM ≤ SC150 < 0.1 μM)”.

As for `COCC(O)CN1CCC(Nc2cccc3c2cc(C#CCNc2ccc(S(C)(=O)=O)cc2OC)n3CC(F)(F)F)C1` (centres unmarked) [Compound 455A, 1-{3-[(2-{3-{(4-methanesulfonyl-2-methoxyphenyl)amino]prop-1-yn-1-yl}-1-(2,2,2-trifluoroethyl)-1H-indol-4-yl)amino]pyrrolidin-1-yl}-3-methoxypropan-2-ol], the “SC150 (concentration of the compound required to increase the DNA binding activity by 50%)” value is recorded as “+ (+ = 0 μM ≤ SC150 < 0.05 μM)”.

Consider `COCC(O)CN1CCC(Nc2cccc3c2cc(C#CCNC(=O)c2ccccc2)n3CC(F)(F)F)C1` (centres unmarked) [Compound 456A, N-[3-(4-{[1-(2-hydroxy-3-methoxypropyl)pyrrolidin-3-yl]amino}-1-(2,2,2-trifluoroethyl)-1H-indol-2-yl)prop-2-yn-1-yl]benzamide], for which the “SC150 (concentration of the compound required to increase the DNA binding activity by 50%)” value was “++++ (++++ = 0.2 μM ≤ SC150 < 1 μM)”. Under `COCC(O)CN1CCC(Nc2cccc3c2cc(C#CCNc2ccc(S(C)(=O)=O)cc2)n3CC(F)(F)F)C1` (stereo not drawn) [Compound 457A, l-{3-[(2-{3-[(4-methanesulfonylphenyl)amino]prop-1-yn-1-yl}-1-(2,2,2-trifluoroethyl)-1H-indol-4-yl)amino]pyrrolidin-1-yl}-3-methoxypropan-2-ol] stands “++ (++ = 0.05 μM ≤ SC150 < 0.1 μM)”; under `COc1cc(S(C)(=O)=O)ccc1NCC#Cc1cc2c(NC3CCN(C4CCOCC4)C3)cccc2n1CC(F)(F)F` (centres unmarked) [Compound 458A, 2-{3-[(4-methanesulfonyl-2-methoxyphenyl)amino]prop-1-yn-1-yl}-N-[1-(oxan-4-yl)pyrrolidin-3-yl]-1-(2,2,2-trifluoroethyl)-1H-indol-4-amine], “+ (+ = 0 μM ≤ SC150 < 0.05 μM)”.
